Entries after “also recorded” stand apart in the source; their conditions may differ.
Assays:
DDX3 = test: ICD-Helicase luciferase reporter assay (Rac1-FLuc / DvL2-FLuc reporter plasmids) in 293T cells; assay type: cell-based, human; conditions: for luciferase (luminescent) signals of Rac1-FLuc or DvL2-FLuc reporter cells: 293T cells transfected with Rac1-FLuc or DvL2-FLuc reporter plasmids, RK-33 0.5 to 2 μM vs vehicle (DMSO), cycloheximide as inhibitory control
Description: A total of 1.2×10^5 sgCTL or sgDDX3X reporter cells (Rac1-FLuc or DvL2-FLuc) were seeded into wells of a 24-well plate to allow cells to adhere for 24 h. Cells were pre-treated with increasing concentrations of a non-specific DDX3 inhibitor, RK-33 (0.5 μM, 1 μM, or 2 μM) for 3 h before transiently expressing the reporter plasmids into sgCTL and sgDDX3X cells for 16 h. Half of the cells were lysed in 1× cell culture lysis buffer (Promega #E1500) and bioluminescence was measured on a white bottom 96-well plate using luciferase assay system (Promega #E4030) by performing 2 sec measurement delay followed by a 10 sec measurement read. The remaining half of the cells were processed on flow-cytometry to determine the percentage of AcGFP^+ cells, to account for variation in transfection efficiency. […] Cycloheximide was used as a positive control for translational inhibition. Data represent three independent experiments and values in the bars are mean±SEM. *, p<0.05; ****, p<0.0001; ns, non-significant.
Cell transfection: 293T cells were seeded in 12 well plate (1.5×10^5 cells per well) a day prior to transfection. Cells were transfected with 1 μg of plasmids using Lipofectamine 2000 (ThermoFisher Scientific #11668019) as per manufacturer's recommendations.
Luciferase assay: Cells were lysed in luciferase cell culture lysis buffer (Promega #E1500) before measuring bioluminescence in a clear bottom 96-well plate using luciferase assay system (Promega #E4030) as per manufacturer's instructions. Relative luciferase activity was determined by subtracting luminescence values to blank and normalizing to untreated samples. Cycloheximide (Sigma #01810) was used as a positive control for translation inhibition at 1 μg/mL and RK-33 (Selleck #S8246) was used as a positive control for chemical inhibition of DDX3 at 3 μM.
The helicase function of the DDX3X and DDX3Y proteins regulates mRNA translation by unwinding of the complex 5′ untranslated region (5′-UTR) secondary structure. Two unique 5′-UTR structures were designed, Rac1 5′-UTR and DvL2 5′-UTR (i.e. short DVL2), known to be regulated by DDX3X and DDX3Y. The 5′-UTR segments were placed upstream of the luciferase gene (from the firefly Photinus pyralis) driven by a constitutively active human cytomegalovirus promoter (FIG. 1A-E). Luciferase emits bioluminescence signals proportional to its levels of expression, which served as a readout for helicase unwinding activity in ICD-Helicase assays. The reporter plasmids (Rac1-Fluc or DvL2-Fluc) were then transiently transfected into 293T cells. A transfection efficiency of more than 80% was obtained in all the experiments (FIG. 2). The selection of this cell line was for three main reasons. […] Second, 293T cells can tolerate knock-out (KO) or nearly complete knock-down of DDX3X expression. […]

293T cells [1] = test: MTS-based viability assay of reporter cells; assay type: cell-based; conditions: 293T reporter cells (sgCTL and sgDDX3X); RK-33 0.5, 1 or 2 μM; normalized against vehicle (DMSO)
Description: (§1) Staurosporine (STS) was used as a positive kill control. […] Cells were treated with STS as a kill control. Bar chart represents mean±SEM of 3 independent experiments.

293T cells [2] = test: Annexin V-FITC apoptosis/cell death assay; assay type: cell-based, human; conditions: RK-33 treatment
Description: as §1

## C[C@@H]1C[C@@H]([C@H](O)CC2CC(=O)NC(=O)C2)C(=O)[C@@H](C)C1 [cycloheximide]
DDX3
  luciferase (luminescent) signals of Rac1-FLuc or DvL2-FLuc reporter cells: significantly inhibited

## RK-33
DDX3
  luciferase (luminescent) signals of Rac1-FLuc or DvL2-FLuc reporter cells: significantly inhibited; also recorded: dose-dependently inhibited
DDX3; sgCTL 293T cells with normal endogenous DDX3, RK-33 0.5, 1 or 2 μM, 3 h pre-treatment
  luciferase activity: dose-dependent reduction in luciferase activity
DDX3; sgDDX3X (DDX3X knock-out) 293T cells expressing Rac1-FLuc or DvL2-FLuc construct, RK-33 0.5, 1 or 2 μM
  luciferase activity (response to inhibitor): did not respond
293T cells [1]
  cell viability: no major change in cell viability
293T cells [2]
  induction of apoptosis/cell death: no major change in cell viability or induction of apoptosis/cell death

Reference: patent US20250207173A1, “REPORTER CELL FOR ASSESSING DDX3 HELICASE ACTIVITY” (Nanyang Technological University, priority 2023, published 2025)
